# Measured values published in patent US20260041649A1, “ANTI-INFLAMMATORY AGENT” (WATANABE OYSTER LABORATORY, CO., LTD., priority 2023, published 2026).
# How the values were obtained:
# [1] = tested on: mouse macrophage RAW264.7 cells; test: Western blotting of cytokine signalling proteins with or without LPS; format: cell-based; conditions: DHMBA 10 μM, 5 hours
# Experimental: Cells (1×10^6 cells/10 ml of medium) were cultured in a DMEM culture medium for 3 days until they reached subconfluence. After that, cells were cultured for another 5 hours in the control group (1% ethanol; DHMBA 0 M) and in the DHMBA-treated group (10 μM) with or without of LPS (100 ng/ml). After the culture, cell lysates were obtained for Western blot assay using specific antibodies against COX-1, COX-2, MAPK, phospho-MAPK, NF-κB p65, STAT3, and β-actin, as shown in FIG. 3.
# Band intensities are presented as fold increase over the controls, under the following conditions: no LPS (FIG. 8B), LPS (100 ng/ml) alone (FIG. 8C), and LPS (100 ng/ml) plus DHMBA (10 μM) (FIG. 8D). Data are presented as the mean±SD of values obtained from 4 dishes using different cell preparations. *: Significant difference (p<0.01) versus the control without LPS (FIG. 8C). *: Significant difference (p<0.01) versus the control with LPS but without DHMBA (FIG. 8D). Statistical analysis was performed using 1-way ANOVA with Tukey-Kramer post-test.
# To measure the expression levels of Cox-1, Cox-2, NF-κB p65, and STAT3, which are involved in cytokine signaling, RAW264.7 cells (1×10^6 cells/10 ml of 100 mm dish) were cultured in a DMEM culture medium containing 10% FS, 1% P/S, and 1% fungizone for 3 days until they reached subconfluence, and then cultured for another 5 hours in the control group (1% ethanol; DHMBA 0 μM as final concentration) and in the DHMBA-treated group (10 μM) with or without LPS (100 ng/ml in the medium). After the culture, the cells attached to the dish were scraped off with a cell lysis buffer and collected for measurement as described in the “Western blotting” section.
# RAW264.7 cells (1×10^6 cells/10 ml of 100 mm dish) were cultured for 3 days in 10% FBS, 1% P/S (1% ethanol), or in the DHMBA-treated group (10 μM). After the culture, the dishes were washed with cold PBS (10 ml) to remove floating and dead cells. The cell lysis buffer (Cell Signaling Technology, Inc., Danvers, MA, USA) supplemented with protease/protein phosphatase inhibitor (Roche Diagnostics, Indianapolis, IN, USA) was added to the cells to collect cell lysates of the adherent cells as described in the previous study. The cell lysates were centrifuged at 17,000×g, 4° C. for 10 min. Protein concentrations in the supernatants were measured using Bio-Rad Protein Assay Dye (Bio-Rad Laboratories, Inc., Hercules, CA, USA) with bovine serum albumin as a standard. The cell lysates were stored at −80° C. until use. The supernatant proteins (40 μg/lane) were separated by SDS-polyacrylamide gel electrophoresis (12% SDS-PAGE) and transferred to a PVDF membrane. The transferred membranes were immunoblotted with specific antibodies against various proteins, including Ras (cat. no. 3339, rabbit), Akt (cat. no. 9272, rabbit), mitogen-activated protein kinase (MAPK; cat. no. 4695, rabbit), phosphorylated MAPK (cat. no. 4370, rabbit), mechanistic target of rapamycin (mTOR; cat. no. 4517, mouse), Rb (cat. no. 9309, mouse), p21 (cat. no. 2947, rabbit), STAT3 (cat. no. 12640, rabbit), COX-1 (cat. no. 48415), COX-2 (cat. no. 4842), and β-actin (cat. no. 3700, mouse), all of which were purchased from Cell Signaling Technology, Inc. (Danvers, MA, USA). Specific antibodies for p53 (cat. no. sc-126, mouse) and NF-κB p65 (cat. no. sc-109, rabbit) were purchased from Santa Cruz Biotechnology Inc. (Santa Cruz, CA, USA). Additionally, rabbit anti-regucalcin antibody (cat. no. HPA029103, rabbit) was obtained from Sigma-Aldrich. Target proteins were incubated overnight at 4° C. with one of the above primary antibodies (1:1,000). After incubation, the membranes were further incubated with horseradish peroxidase-conjugated secondary antibodies (Santa Cruz Biotechnology Inc., cat. no. sc-2005 (mouse) or sc-2305 (rabbit); dilution 1:2000) for 60 min at room temperature, and protein bands were detected using chemiluminescence substrates (cat. no. 34577, Thermo Fisher Scientific Inc., Rockford, IL, USA) on X-ray films. […]
# [2] = tested on: RAW264.7 cells cultured with LPS; test: Cell proliferation of RAW264.7 cells cultured with LPS; format: cell-based, mouse; conditions: DHMBA 1 or 10 μM, LPS 100 ng/ml, 3 days
# Experimental: In FIG. 5A, to examine the effect on cell proliferation, RAW264.7 cells (1×10^5/ml/well) were cultured for 3 days in a DMEM culture medium containing 10% FBS, 1% P/S, and 1% fungizone in the control group (1% ethanol as final concentration) with or without LPS (1, 10, 50, 100, 500 ng/ml). In FIG. 5B, cells (1×10^5/ml per well) were cultured for 3 days in a DMEM culture medium containing 10% FBS, 1% P/S, and 1% fungizone in the DHMBA-treated group (1 or 10 μM) with or without LPS (100 ng/ml). In FIG. 5C, to examine the effect on cell death, cells that had reached subconfluence after 3 days of culture were cultured for another 48 hours in the control group (1% ethanol) with or without LPS (1, 10, 50, 100, or 500 ng/ml). In FIG. 5D, cells that had reached subconfluence were cultured for another 48 hours in the DHMBA-treated group (1 or 10 μM) with or without LPS (100 ng/ml). After the culture, the number of cells attached to the dish was counted. Data are presented as the mean±SD from a total of 8 wells in 2 plates using different cell preparations. *: Significant difference (p<0.01) versus the controls without LPS (gray bars) (FIG. 5A and FIG. 5C) or without DHMBA (gray bars) (FIG. 5B and FIG. 5D). […]
# The number of viable cells was counted under a microscope (Olympus MTV-3) using a hemocytometer (Sigma-Aldrich) and a cell counter (H-102P, Line Seiki Co., Ltd., Tokyo, Japan).
structure (smiles),measurement,setting,value
"COc1c(O)cc(CO)cc1O [DHMBA, 3,5-dihydroxy-4-methoxybenzyl alcohol]",LPS-increased level of MAPK,[1]; LPS 100 ng/ml,suppressed
same,LPS-increased level of NF-κB p65,[1]; LPS 100 ng/ml,suppressed
same,LPS-increased level of STAT3,[1]; LPS 100 ng/ml,suppressed
same,LPS-increased level of phospho-MAPK,[1]; LPS 100 ng/ml,suppressed
same,level of COX-1,[1]; without LPS,not altered
same,level of COX-2,[1]; without LPS,not altered
same,level of MAPK,[1]; without LPS,not altered
same,level of NF-κB p65,[1]; without LPS,not altered
same,level of STAT3,[1]; without LPS,not altered
same,level of phospho-MAPK,[1]; without LPS,not altered
same,proliferation of RAW264.7 cells in the presence of LPS,[2],suppressed
